Assays:
α4β3δ GABAA receptor = α4β3δ GABAA receptor (Homo sapiens (Human), UniProt P28472+P48169); test: Patch clamp electrophysiology of recombinant α4β3δ GABAA receptors (CHO cells); conditions: read-out: GABA (α4β3δ) Qpatch in CHO, % efficacy at 10 μM
Protocol: (§1) LTK cells are stably transfected with the α1β2γ2 subunits of the GABA receptor and CHO cells are transiently transfected with the α4β3δ subunits via the Lipofecatamine method. Cells were passaged at a confluence of about 50-80% and then seeded onto 35 mm sterile culture dishes containing 2 ml culture complete medium without antibiotics or antimycotics.
(§2) Whole cell currents were measured with HEKA EPC-10 amplifiers using PatchMaster software or by using the high throughput QPatch platform (Sophion). […] In some cases 0.005% cremophor was also added. Intracellular (pipette) solution contained: KCl 130 mM, MgCl2 1 mM, Mg-ATP 5 mM, HEPES 10 mM, EGTA 5 mM, pH 7.2. During experiments, cells and solutions were maintained at room temperature (19° C.-30° C.). For manual patch clamp recordings, cell culture dishes were placed on the dish holder of the microscope and continuously perfused (1 ml/min) with bath solution. After formation of a Gigaohm seal between the patch electrodes and the cell (pipette resistance range: 2.5 MΩ-6.0 MΩ; seal resistance range: >1 GΩ) the cell membrane across the pipette tip was ruptured to assure electrical access to the cell interior (whole-cell patch-configuration). For experiments using the QPatch system, cells were transferred as suspension to the QPatch system in the bath solution and automated whole cell recordings were performed.
(§3) Cells were voltage clamped at a holding potential of −80 mV. For the analysis of test articles, GABA receptors were stimulated by 2 μM GABA after sequential pre-incubation of increasing concentrations of the test article. Pre-incubation duration was 30 s and the duration of the GABA stimulus was 2 s. Test articles were dissolved in DMSO to form stock solutions (10 mM). Test articles were diluted to 0.01, 0.1, 1, and 10 μM in bath solution. All concentrations of test articles were tested on each cell. The relative percentage potentiation was defined as the peak amplitude in response to GABA EC20 in the presence of the test article divided by the peak amplitude in response to GABA EC20 alone, multiplied by 100.

α1β2γ2 GABAA receptor = α1β2γ2 GABAA receptor (Homo sapiens (Human), UniProt P14867+P47870); conditions: LTK, read-out: GABA (α1β2γ2) Qpatch in Ltk, % efficacy at 10 μM, Qpatch, Ltk cells, 10 μM compound, 2 μM GABA
Protocol: as §1, §2, §3

[1] = target: [35S]-TBPS binding, rat brain cortical membranes; test: Steroid inhibition of [35S]-TBPS binding; conditions: 3 nM [35S]-TBPS, in the presence of 5 μM GABA
Protocol: Steroid Inhibition of TBPS Binding
[35S]-t-Butylbicylophorothionate (TBPS) binding assays using rat brain cortical membranes in the presence of 5 μM GABA has been described (Gee et al, J. Pharmacol. Exp. Ther. 1987, 241, 346-353; Hawkinson et al, Mol. Pharmacol. 1994, 46, 977-985; Lewin, A. H et al., Mol. Pharmacol. 1989, 35, 189-194).
Briefly, cortices are rapidly removed following decapitation of carbon dioxide-anesthetized Sprague-Dawley rats (200-250 g). The cortices are homogenized in 10 volumes of ice-cold 0.32 M sucrose using a glass/teflon homogenizer and centrifuged at 1500×g for 10 min at 4° C. The resultant supernatants are centrifuged at 10,000×g for 20 min at 4° C. to obtain the P2 pellets. The P2 pellets are resuspended in 200 mM NaCl/50 mM Na—K phosphate pH 7.4 buffer and centrifuged at 10,000×g for 10 min at 4° C. This washing procedure is repeated twice and the pellets are resuspended in 10 volumes of buffer. Aliquots (100 μL) of the membrane suspensions are incubated with 3 nM [^35S]-TBPS and 5 μL aliquots of test drug dissolved in dimethyl sulfoxide (DMSO) (final 0.5%) in the presence of 5 μM GABA. The incubation is brought to a final volume of 1.0 mL with buffer. Nonspecific binding is determined in the presence of 2 μM unlabeled TBPS and ranged from 15 to 25%. Following a 90 min incubation at room temp, the assays are terminated by filtration through glass fiber filters (Schleicher and Schuell No. 32) using a cell harvester (Brandel) and rinsed three times with ice-cold buffer. Filter bound radioactivity is measured by liquid scintillation spectrometry. Non-linear curve fitting of the overall data for each drug averaged for each concentration is done using Prism (GraphPad).
Various compounds are or can be screened to determine their potential as modulators of [^355]-TBPS binding in vitro. These assays are or can be performed in accordance with the above discussed procedures.

Row | SMILES | Emax at 10 µM (α4β3δ GABAA receptor) | Emax at 10 µM (α1β2γ2 GABAA receptor) | IC50 [1]
1 | C[C@@]1(O)CC[C@H]2[C@H](CC[C@@H]3[C@@H]2CC[C@]2(C)[C@@H](C(=O)CN4CCN(S(C)(=O)=O)CC4)CC[C@@H]32)C1 [Entry 8] | > 500% | > 500% | –
2 | CC(=O)N1CCN(CC(=O)[C@H]2CC[C@H]3[C@@H]4CC[C@H]5C[C@](C)(O)[C@@H](C)C[C@@H]5[C@H]4CC[C@]23C)CC1 [Entry 27] | 100 to 500% | 100 to 500% | –
3 | C[C@H]1C[C@H]2[C@@H](CC[C@@H]3[C@@H]2CC[C@]2(C)[C@@H](C(=O)CN4CCOCC4)CC[C@@H]32)C[C@]1(C)O [Entry 45] | > 500% | 10 to 100% | –
4 | C[C@@]1(O)CC[C@H]2[C@H](CC[C@@H]3[C@@H]2CC[C@]2(C)[C@@H](C(=O)CN4CCC(O)C4)CC[C@@H]32)C1 (stereo partly shown) [Entry 4] | – | 100 to 500% | 0.1 to 0.5 µM
5 | COC[C@@]1(O)CC[C@H]2[C@H](CC[C@@H]3[C@@H]2CC[C@]2(C)[C@@H](C(=O)CN4CCN(S(C)(=O)=O)CC4)CC[C@@H]32)C1 [Entry 30] | – | > 500% | –
6 | CNC(=O)N1CCN(CC(=O)[C@H]2CC[C@H]3[C@@H]4CC[C@@H]5C[C@](C)(O)CC[C@@H]5[C@H]4CC[C@]23C)CC1 [Entry 9] | – | 100 to 500% | –
7 | C[C@@H]1C[C@H]2[C@@H](CC[C@@H]3[C@@H]2CC[C@]2(C)[C@@H](C(=O)CN4CCOCC4)CC[C@@H]32)C[C@]1(C)O [Entry 47] | – | 10 to 100% | –
8 | COC[C@@]1(O)CC[C@H]2[C@@H](CC[C@@H]3[C@@H]2CC[C@]2(C)[C@@H](C(=O)CN4CCOCC4)CC[C@@H]32)C1 [Entry 50] | – | 10 to 100% | –
9 | C[C@@H]1COCCN1CC(=O)[C@H]1CC[C@H]2[C@@H]3CC[C@@H]4C[C@](C)(O)CC[C@@H]4[C@H]3CC[C@]12C [Entry 7] | – | 100 to 500% | –

— US11912737B2, “19-nor neuroactive steroids and methods of use thereof” (Sage Therapeutics, Inc., priority 2013, dated 2024)
